Laboratory results: US8617614B2, “Sustained release preparation for tissue regeneration therapy” (Ono Pharmaceutical Co., Ltd., priority 2006, dated 2013)

What was measured:
[1] = tested on: rat common carotid artery occlusion-disobliteration (4-VO) model; assay: Water maze learning ability, rat 4-VO model; format: in vivo
Description: Nine-week-old male Crlj:WI rats were intraperitoneally administered pentobarbital sodium and, while under anesthesia, were secured in the prone position to a brain stereotaxic instrument. An occipital incision was made in the skin and muscle layer of the neck region, the left and right pterygoid foramina of the first cervical vertebra were exposed, and the vertebral arteries were thermocoagulated by inserting the tip of a soldering iron into each pterygoid foramen, thereby permanently occluding the bilateral vertebral arteries. Next, a midline incision was made in the anterior region of the neck, the common carotid arteries on both sides were exposed and detached, a silicone tube was passed under the arteries and placed annularly around the arteries, following which the skin of the neck region was sutured together. On the day after vertebral arterial cauterization, the animals were anesthetized with diethyl ether, then immobilized in the supine position. Both common carotid arteries were exposed using the silicone tube that had been placed on the common carotid arteries in the neck region and were temporarily occluded for 10 minutes with Sugita clips, then reopened. Aside from ischemia and disobliteration, the same procedure was carried out also on a normal group ([…]).
• Test Group 1: 4-VO+medium, 8 days • Test Group 2: 4-VO+present drug, 10 mg/kg, twice daily, for 8 days • Test Group 3: 4-VO+present drug, 1 mg/kg, twice daily, for 42 days (evaluation of nerve cell number only) (2) Evaluation of number of nerve cells in CA1 region excised from brain (Groups 4 to 7) following measurement of water maze learning ability (Groups 4 to 7) • Test Group 4: normal (sham group)+medium, 42 days (normal control) • Test Group 5: 4-VO+medium, 42 days (solvent control) • Test Group 6: 4-VO+present drug, 10 mg/kg, twice daily for 42 days • Test Group 7: 4-VO+solvent for 8 days+present drug, 10 mg/kg, twice daily, for 34 days (evaluation of regenerative activity) (3) Pathology: Perfusion and fixing of the brain was carried out on day 8 in Test Groups 1 and 2, and on the day after the water maze learning ability test in Groups 4 to 7. The number of nerve cells was then counted by the same method as described above in Test 1. In Test Group 3, after drug administration was stopped, the brains were fixed at the same time as in Test Groups 4 to 7. (4) Measurement of Water Maze Learning Ability
Using Test Groups […], the […] were investigated with a Morris water maze in such a way as to avoid a bias between the groups.
A clear acrylic platform (about 12 cm in diameter and about 30 cm in height) which cannot be visually detected and a circular pool (about 148 cm in diameter and about 44 cm in height) made of gray vinyl chloride and filled with water (water temperature, 17 to 18° C.) to a height of about 32 cm so that the platform is hidden by the water were used.
The pool was divided into four quadrants, the platform was placed at the center of the fourth quadrant (about 36 cm from the center of the pool), and light bulbs were placed at the perimeter of the pool to provide a spatial reference.
Following the final drug dose, a drug-free period of at least 2 weeks was provided, after which the rat was placed in the pool from one of several points A to E with its head facing the circular pool wall, and the time it took to reach the platform (goal latency; seconds) was measured with a stopwatch (the measurement time was a maximum of 90 seconds). When the rat reached the platform within 90 seconds and remained on the platform for 30 seconds, it was judged to be aware of the platform location and measurement was brought to an end.
Goal latency measurements were carried out twice daily (once in the morning, and once in the afternoon) on days 1 to 4. The rat was placed in the pool from the various points A to E with its head facing the wall of the circular pool. […]

[2] = tested on: STZ induced diabetes model; assay: Nerve conduction velocity, STZ induced diabetes model; format: in vivo; details: STZ rat, Test Group 3: 3 mg/kg oral twice daily
Procedure: Female Sprague-Dawley rats (8- to 11-week-old; Japan SLC, Inc.) were intraperitoneally administered 40 mg/kg of a citrate buffer (pH, approx. 4.5) of streptozotocin (STZ; Sigma). A normal control group was intraperitoneally given only the citrate buffer. Two weeks after STZ administration, and 4, 8 and 12 weeks after the start of test solution administration, the animals were anesthetized by the intraperitoneal administration of 30 to 45 mg/kg of pentobarbital. Fur was removed from the dorsolumbar region of the rat and the animal was immobilized in the prone position, following which a needle electrode for […] stimulation (NEC Medical Systems) was inserted near the sciatic nerve, a needle electrode for […] stimulation was inserted near the Achilles tendon on the same side, and a recording needle electrode (NEC Medical Systems) was inserted in the plantar muscle on the same side. After checking that the body temperature was in a range of 37 to 38° C., square-wave stimulation (0.5 Hz, 0.1 msec, submax voltage) to the distal and proximal stimulating electrodes was applied using an electrical stimulator (SEN-3301; Nihon Kohden Corporation). The evoked potential was led out via a measuring electrode, input through a bioelectric amplifier (AB-621G, Nihon Kohden Corporation) to an evoked electromyogram averaging program (MTS50061C, Medical Try System) and averaged ten times, and the nerve conduction velocity was computed from the respective distal and proximal conduction times and the electrode interval distances. Measurement was carried out on the left leg (treated side) and right leg (untreated side) in each test group, and the respective average values thereof used as the data. In Groups 2 to 5, the feeding blood sugar level two weeks after STZ administration was measured. Of rats with blood sugar levels above 300 mg/dL, severely diabetic rats were excluded therefrom, and the remaining rats were used as diabetes model animals. Groups were formed in such a way as to make the respective groups uniform with respect to nerve conduction velocity, blood sugar level and body weight. Administration was carried out in accordance with the intended route of administration for clinical use. In Test Group 3, forced administration was carried out orally using a disposable syringe barrel and a rat stomach probe. In Test Group 4, intramuscular administration was carried out uniformly at four places within the muscle along the sciatic nerve in the femoral portion of the left leg. For subcutaneous administration in test Group 5, the animals were ether anesthetized, and subcutaneous administration was carried out in the dorsal region using a disposable syringe barrel and a disposable 25 G syringe needle. The volume of solution administered was computed based on the latest body weight. The amount of microspheres administered indicates the amount of the present drug included.

[3] = Test Group 6: 10 mg/kg oral twice daily 42 days
[4] = Test Group 7: solvent 8 days, then 10 mg/kg oral twice daily 34 days
[5] = right leg (drug-untreated side)

O=C(O)COc1cccc2c1CCC=C2CCO/N=C(\c1ccccc1)c1cccnc1 [present drug, ({5-[2-({[(1E)-phenyl(pyridin-3-yl)methylene]amino}oxy)ethyl]-7,8-dihydronaphthalen-1-yl}oxy)acetic acid] was tested, and the “Distance traveled until rat reaches platform, AUC for Days 1 to 4 (average)” value [1, 3] was 3932.8 ± 1115.1, the “Goal latency (seconds) Acquisition trials Day 1 (average)” value [1, 3] was 71.8 ± 18.3 s and the “Goal latency (seconds) Acquisition trials Day 2 (average)” value [1, 3] was 58.8 ± 22.1 s. For the same molecule, the “Goal latency (seconds) Acquisition trials Day 3 (average)” value [1, 3] was 41.3 ± 28.8 s, the “Goal latency (seconds) Acquisition trials Day 4 (average)” value [1, 3] was 33.9 ± 23.2 s and the “Goal latency (seconds) Acquisition trials Trials 1 to 8 (average)” value [1, 3] was 51.5 ± 11.9 s. For the same molecule, the “Goal latency, AUC for Days 1 to 4 (average)” value [1, 3] was 152.9 ± 42.7, the “goal latency (seconds) and distance traveled relative to the solvent control group (Test Group 5)” value ([1]; Test Group 6: oral 10 mg/kg twice daily) was “significant shortening” and the “goal latency (seconds) and distance traveled relative to the solvent control group (Test Group 5)” value ([1]; Test Group 7: medium up to day 8, oral 10 mg/kg twice daily from day 9) was “significant shortening”. The “Distance traveled until rat reaches platform, AUC for Days 1 to 4 (average)” value [1, 4] was 3850.5 ± 832.5, the “Goal latency (seconds) Acquisition trials Day 1 (average)” value [1, 4] was 73.8 ± 15.2 s and the “Goal latency (seconds) Acquisition trials Day 2 (average)” value [1, 4] was 55.4 ± 29.6 s. For the same molecule, the “Goal latency (seconds) Acquisition trials Day 3 (average)” value [1, 4] was 41.7 ± 26.7 s, the “Goal latency (seconds) Acquisition trials Day 4 (average)” value [1, 4] was 25.8 ± 15.2 s and the “Goal latency (seconds) Acquisition trials Trials 1 to 8 (average)” value [1, 4] was 49.2 ± 10.1 s. The “Goal latency, AUC for Days 1 to 4 (average)” value [1, 4] was 146.9 ± 40.5, the “left leg nerve conduction velocity relative to Test Group 2” value ([2]; after 12 weeks) was “significant nerve conduction velocity increases” and the “right leg nerve conduction velocity relative to Test Group 2” value ([2]; at any of the times) was “A significant extension effect was not confirmed”. The “Nerve conduction velocity (m/sec) 0 weeks” value ([2]; left leg (drug-treated side)) was 37.5 ± 8.0 m/sec, the “Nerve conduction velocity (m/sec) 4 weeks” value ([2]; left leg (drug-treated side)) was 37.8 ± 3.8 m/sec and the “Nerve conduction velocity (m/sec) 8 weeks” value ([2]; left leg (drug-treated side)) was 40.8 ± 3.4 m/sec. The “Nerve conduction velocity (m/sec) 0 weeks” value [2, 5] was 38.7 ± 5.0 m/sec, the “Nerve conduction velocity (m/sec) 4 weeks” value [2, 5] was 39.0 ± 2.3 m/sec and the “Nerve conduction velocity (m/sec) 8 weeks” value [2, 5] was 39.9 ± 2.2 m/sec. For the same molecule, the “Nerve conduction velocity (m/sec) 12 weeks” value [2, 5] was 41.3 ± 2.1 m/sec.
